Reference: PMC6421115 (The Journal of eukaryotic microbiology, 2018)
Structures can show the parent of a compound that is named as a salt. Where two headings read alike, the source gives them in different places. Marks after values point to notes of the source that are not given here.

Legend:
C. parvum [1] = test: Efficacy against C. parvum growth in vitro in HCT-8 cells, qRT-PCR assay; details: for Safety Interval (TC50/EC50): HCT-8 TC50 / C. parvum EC50
HCT-8 cells [2] = test: Cytotoxicity on host cells, MTT assay
[3] = molecular target: T1, C. parvum hexokinase (CpHK) (Cryptosporidium parvum, UniProt Q5CWT5); details: ref Yu et al. 2014, cited from earlier work
HsHK1 = molecular target: T2, HsHK1 (Homo sapiens, UniProt P19367); test: HsHK1 enzyme parameters towards substrates; type: biochemical
T2 sequence (P19367 1-917): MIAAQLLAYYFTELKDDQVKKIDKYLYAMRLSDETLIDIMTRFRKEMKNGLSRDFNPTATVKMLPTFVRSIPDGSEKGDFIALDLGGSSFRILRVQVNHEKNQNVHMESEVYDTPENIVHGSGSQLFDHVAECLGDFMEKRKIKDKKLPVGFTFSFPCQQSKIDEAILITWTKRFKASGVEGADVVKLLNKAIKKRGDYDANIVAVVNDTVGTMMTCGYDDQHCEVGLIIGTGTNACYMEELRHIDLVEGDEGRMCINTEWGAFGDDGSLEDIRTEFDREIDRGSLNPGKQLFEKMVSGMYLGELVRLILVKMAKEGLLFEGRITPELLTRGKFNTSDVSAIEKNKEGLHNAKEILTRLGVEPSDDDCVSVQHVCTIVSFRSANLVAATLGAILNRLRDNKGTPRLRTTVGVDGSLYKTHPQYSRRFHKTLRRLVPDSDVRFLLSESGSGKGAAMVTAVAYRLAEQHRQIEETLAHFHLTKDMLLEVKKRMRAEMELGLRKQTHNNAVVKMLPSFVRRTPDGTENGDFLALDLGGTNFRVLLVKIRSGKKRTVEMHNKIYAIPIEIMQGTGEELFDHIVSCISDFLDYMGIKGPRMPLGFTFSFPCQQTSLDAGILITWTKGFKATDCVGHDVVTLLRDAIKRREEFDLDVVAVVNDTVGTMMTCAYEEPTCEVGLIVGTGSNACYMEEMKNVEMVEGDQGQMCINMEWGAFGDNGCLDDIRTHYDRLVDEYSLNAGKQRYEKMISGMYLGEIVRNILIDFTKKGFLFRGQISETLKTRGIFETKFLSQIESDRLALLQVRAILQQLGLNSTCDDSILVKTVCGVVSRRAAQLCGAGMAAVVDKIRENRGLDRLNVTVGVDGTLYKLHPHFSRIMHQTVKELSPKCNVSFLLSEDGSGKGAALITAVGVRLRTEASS

[4] = molecular target: T1, C. parvum hexokinase (CpHK); test: biochemical; type: biochemical; details: for Selectivity on enzyme: HsHK1 IC50 versus CpHK IC50; for Mode of inhibition of CpHK: inhibitory kinetics
CpHK = molecular target: T3, CpHK (Cryptosporidium parvum, UniProt Q5CWT5); test: CpHK enzyme parameters towards substrates; type: biochemical
T3 sequence (Q5CWT5 1-518): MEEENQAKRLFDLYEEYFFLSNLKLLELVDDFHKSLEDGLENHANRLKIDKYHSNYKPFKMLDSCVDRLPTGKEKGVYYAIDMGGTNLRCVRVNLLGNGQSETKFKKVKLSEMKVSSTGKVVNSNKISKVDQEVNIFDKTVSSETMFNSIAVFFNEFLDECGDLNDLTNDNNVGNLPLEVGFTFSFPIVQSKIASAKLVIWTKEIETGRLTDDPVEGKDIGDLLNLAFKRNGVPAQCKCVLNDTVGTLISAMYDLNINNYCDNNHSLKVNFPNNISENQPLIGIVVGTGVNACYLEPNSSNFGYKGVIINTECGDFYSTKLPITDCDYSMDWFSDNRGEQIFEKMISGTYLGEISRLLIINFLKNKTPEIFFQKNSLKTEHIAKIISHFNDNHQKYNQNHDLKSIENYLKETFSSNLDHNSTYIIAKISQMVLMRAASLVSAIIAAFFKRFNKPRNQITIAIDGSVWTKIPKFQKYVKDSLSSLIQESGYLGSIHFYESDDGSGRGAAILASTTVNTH

[5] = molecular target: T4, human (Homo sapiens) HK-I (HsHK1) (Homo sapiens, UniProt P19367); test: HsHK1 inhibition, HK/G6PDH-coupled assay; type: biochemical
T4 sequence (P19367 1-917): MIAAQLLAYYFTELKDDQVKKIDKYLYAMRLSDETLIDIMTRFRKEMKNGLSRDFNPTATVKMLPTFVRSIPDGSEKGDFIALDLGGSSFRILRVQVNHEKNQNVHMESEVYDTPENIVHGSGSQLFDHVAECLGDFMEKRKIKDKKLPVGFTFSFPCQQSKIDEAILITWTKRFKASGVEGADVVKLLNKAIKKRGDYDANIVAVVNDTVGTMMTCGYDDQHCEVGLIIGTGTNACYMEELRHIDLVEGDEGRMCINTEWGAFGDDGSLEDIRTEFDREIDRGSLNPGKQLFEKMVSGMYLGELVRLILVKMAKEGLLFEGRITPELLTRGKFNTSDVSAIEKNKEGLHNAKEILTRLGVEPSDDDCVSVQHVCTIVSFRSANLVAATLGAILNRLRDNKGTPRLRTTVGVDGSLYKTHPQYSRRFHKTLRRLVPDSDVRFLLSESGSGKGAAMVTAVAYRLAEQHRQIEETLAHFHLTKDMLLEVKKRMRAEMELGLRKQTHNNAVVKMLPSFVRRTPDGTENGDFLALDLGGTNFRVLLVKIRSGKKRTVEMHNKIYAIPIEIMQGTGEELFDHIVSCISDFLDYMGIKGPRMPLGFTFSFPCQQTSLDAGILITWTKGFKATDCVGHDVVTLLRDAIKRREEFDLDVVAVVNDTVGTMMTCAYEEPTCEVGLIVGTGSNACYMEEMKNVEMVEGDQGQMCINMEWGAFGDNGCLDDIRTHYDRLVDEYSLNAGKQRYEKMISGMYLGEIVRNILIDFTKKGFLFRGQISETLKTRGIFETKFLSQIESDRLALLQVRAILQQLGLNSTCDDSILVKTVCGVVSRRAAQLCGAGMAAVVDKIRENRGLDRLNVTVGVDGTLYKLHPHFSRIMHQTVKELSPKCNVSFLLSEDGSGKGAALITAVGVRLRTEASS

HCT-8 cells [6] = details: host cells; ref Eltahan et al, 2018; cited from earlier work
C. parvum [7] = details: read-out: Efficacy on C. parvum (EC50); in vitro; ref Eltahan et al, 2018; cited from earlier work
[8] = substrate: OC[C@H]1OC(O)[C@H](O)[C@@H](O)[C@@H]1O; test: HsHK1 enzyme parameters towards substrates; type: biochemical, Homo sapiens; details: other: compound as substrate, 37 °C, pH 7.5
[9] = substrate: O=CC[C@@H](O)[C@H](O)[C@H](O)CO; test: purified protein, by the assay type; details: other: compound as substrate, 37 °C, pH 7.5
[10] = substrate: O=CC[C@@H](O)[C@H](O)[C@H](O)CO; test: CpHK enzyme parameters towards substrates; type: biochemical, Cryptosporidium parvum; details: other: compound as substrate; pH 7.5
[11] = substrate: OC[C@H]1OC(O)[C@H](O)[C@@H](O)[C@@H]1O; test: CpHK enzyme parameters towards substrates; type: biochemical, Cryptosporidium parvum; details: other: compound as substrate; pH 7.5
[12] = Cryptosporidium parvum, HCT-8, 44 h, read-out: In vitro efficacy (EC50)
[13] = Cryptosporidium parvum, HCT-8, read-out: Efficacy on C. parvum (EC50)

## O=CC[C@@H](O)[C@H](O)[C@H](O)COP(=O)(O)O [2DG6P, 2-deoxy-D-glucose-6-phosphate]
C. parvum [1]; [12]
  EC50: 18000 µM
C. parvum [1]
  Safety Interval (TC50/EC50): >4.0
HCT-8 cells [2]; 44 h treatment
  Cytotoxicity (TC50): >72000 µM

## O=CC[C@@H](O)[C@H](O)[C@H](O)CO [2DG, 2-deoxy-D-glucose]
C. parvum [1]; [12]
  EC50: 540 µM
C. parvum [1]
  Safety Interval (TC50/EC50): 66.7
[3]; read-out: CpHK IC50
  IC50: 5750 µM
[3]; read-out: CpHK Ki
  Ki: 340 µM
[3]
  Mode of inhibition of CpHK: competitive inhibitor
HsHK1
  Ratio (2DG/glucose) of HsHK1 Km: 9.81
  Ratio (2DG/glucose) of HsHK1 Vmax: 1.28
[4]
  IC50: 5750 µM
HCT-8 cells [2]; 44 h treatment
  Cytotoxicity (TC50): 36000 µM
CpHK
  Ratio (2DG/glucose) of CpHK Vmax: 0.72
CpHK; fold lower affinity than for glucose
  Ratio (2DG/glucose) of CpHK Km: 4.43
[5]
  IC50: 10100 µM

## CCCCC(CC)CNC(=N)NC(=N)NCCCCCCNC(=N)NC(=N)NCC(CC)CCCC (stereo not shown) [Alexidine•2HCl, alexidine dihydrochloride]
C. parvum [1]; [13]
  EC50: 8.1 µM
[4]
  IC50: 22.1 µM
  Selectivity on enzyme: 1.03
  Mode of inhibition of CpHK: noncompetitive inhibitor
HCT-8 cells [2]; host cells
  Cytotoxicity (TC50): 32.6 µM
[5]
  IC50: 22.7 µM

## O=c1c2ccccc2[se]n1-c1ccccc1 [Ebselen, 2-phenyl-1,2-benzisoselenazol-3(2H)-one]
HCT-8 cells [6]
  Cytotoxicity (TC50): 700 ^* μM
[4]
  IC50: 0.241 µM
  Selectivity on enzyme: 1.10
  Mode of inhibition of CpHK: noncompetitive inhibitor
[4]; not reversed by up to 50-fold dilution, from 100 to 2 μM
  Reversibility of CpHK inhibition: irreversible inhibitor
C. parvum [7]
  EC50: 165 µM
[5]
  IC50: 0.265 µM

## OC[C@H]1OC(O)[C@H](F)[C@@H](O)[C@@H]1O (stereo partly shown) [FDG, fluorodeoxyglucose]
C. parvum [1]
  Safety Interval (TC50/EC50): > 240
C. parvum [1]; listed as 2FDG
  Safety Interval (TC50/EC50): >240
C. parvum [1]; read-out: In vitro efficacy (EC50), 44 h infection assay
  EC50: 300 µM
[4]; read-out: Effect on CpHK, IC50
  IC50: 3700 µM
[5]; read-out: Effect on HsHK1, IC50, 37 °C
  IC50: 15200 µM

## Oc1c(Cl)cc(Cl)c(Cl)c1Cc1c(O)c(Cl)cc(Cl)c1Cl [Hexachlorophene]
C. parvum [1]; [13]
  EC50: 0.53 µM
[4]
  IC50: 8.8 µM
  Selectivity on enzyme: 0.74
  Mode of inhibition of CpHK: mixed model of inhibition
HCT-8 cells [2]; host cells
  Cytotoxicity (TC50): 100 µM
[5]
  IC50: 6.5 µM

## C[CH2][Hg][S]c1ccccc1C(=O)[O-].[Na+] [Thimerosal]
C. parvum [1]; read-out: Efficacy on C. parvum (EC50), in vitro
  EC50: 1.77 µM
[4]
  Mode of inhibition of CpHK: mixed model of inhibition
[4]; read-out: Inhibition on CpHK (IC50), 37 °C, 1% DMSO
  IC50: 2.3 µM
HCT-8 cells [2]; host cells
  Cytotoxicity (TC50): 18.5 µM
[5]; read-out: Inhibition on HsHK1 (IC50), 37 °C, 1% DMSO
  IC50: 0.35 µM

B1: HsHK1 (Homo sapiens) (protein)
chain: MIAAQLLAYYFTELKDDQVKKIDKYLYAMRLSDETLIDIMTRFRKEMKNGLSRDFNPTATVKMLPTFVRSIPDGSEKGDFIALDLGGSSFRILRVQVNHEKNQNVHMESEVYDTPENIVHGSGSQLFDHVAECLGDFMEKRKIKDKKLPVGFTFSFPCQQSKIDEAILITWTKRFKASGVEGADVVKLLNKAIKKRGDYDANIVAVVNDTVGTMMTCGYDDQHCEVGLIIGTGTNACYMEELRHIDLVEGDEGRMCINTEWGAFGDDGSLEDIRTEFDREIDRGSLNPGKQLFEKMVSGMYLGELVRLILVKMAKEGLLFEGRITPELLTRGKFNTSDVSAIEKNKEGLHNAKEILTRLGVEPSDDDCVSVQHVCTIVSFRSANLVAATLGAILNRLRDNKGTPRLRTTVGVDGSLYKTHPQYSRRFHKTLRRLVPDSDVRFLLSESGSGKGAAMVTAVAYRLAEQHRQIEETLAHFHLTKDMLLEVKKRMRAEMELGLRKQTHNNAVVKMLPSFVRRTPDGTENGDFLALDLGGTNFRVLLVKIRSGKKRTVEMHNKIYAIPIEIMQGTGEELFDHIVSCISDFLDYMGIKGPRMPLGFTFSFPCQQTSLDAGILITWTKGFKATDCVGHDVVTLLRDAIKRREEFDLDVVAVVNDTVGTMMTCAYEEPTCEVGLIVGTGSNACYMEEMKNVEMVEGDQGQMCINMEWGAFGDNGCLDDIRTHYDRLVDEYSLNAGKQRYEKMISGMYLGEIVRNILIDFTKKGFLFRGQISETLKTRGIFETKFLSQIESDRLALLQVRAILQQLGLNSTCDDSILVKTVCGVVSRRAAQLCGAGMAAVVDKIRENRGLDRLNVTVGVDGTLYKLHPHFSRIMHQTVKELSPKCNVSFLLSEDGSGKGAALITAVGVRLRTEASS
[8]
  Km: 27 µM
  Vmax: 53.3 µmol/min
[9]
  Km: 265 µM
  Vmax: 68.4 µmol/min

B2: CpHK (Cryptosporidium parvum Iowa II) (protein)
chain: MEEENQAKRLFDLYEEYFFLSNLKLLELVDDFHKSLEDGLENHANRLKIDKYHSNYKPFKMLDSCVDRLPTGKEKGVYYAIDMGGTNLRCVRVNLLGNGQSETKFKKVKLSEMKVSSTGKVVNSNKISKVDQEVNIFDKTVSSETMFNSIAVFFNEFLDECGDLNDLTNDNNVGNLPLEVGFTFSFPIVQSKIASAKLVIWTKEIETGRLTDDPVEGKDIGDLLNLAFKRNGVPAQCKCVLNDTVGTLISAMYDLNINNYCDNNHSLKVNFPNNISENQPLIGIVVGTGVNACYLEPNSSNFGYKGVIINTECGDFYSTKLPITDCDYSMDWFSDNRGEQIFEKMISGTYLGEISRLLIINFLKNKTPEIFFQKNSLKTEHIAKIISHFNDNHQKYNQNHDLKSIENYLKETFSSNLDHNSTYIIAKISQMVLMRAASLVSAIIAAFFKRFNKPRNQITIAIDGSVWTKIPKFQKYVKDSLSSLIQESGYLGSIHFYESDDGSGRGAAILASTTVNTH
[10]
  Km: 204 µM
  Vmax: 112 µmol/min
[11]
  Km: 46 µM
  Vmax: 155 µmol/min
